# Measured values reported in patent US20190105369A1, “CD31SHED AGONISTS FOR USE IN THE PREVENTION AND/OR TREATMENT OF REPERFUSION INJURY” (INSTITUT NATIONAL DE LA SANTE ET DE LA RECHERCHE MEDICAL …, priority 2016, published 2019).
# “Also recorded” adds a separate entry of the source. Non-standard residues stand in square brackets, D forms with d. No end group written: not given here.
# Tests used:
# thrombin generation = conditions: cited from earlier work
# human platelet = conditions: cited from earlier work
# Rats = assay: Model of mesenteric ischemia-reperfusion (mesenteric artery clamped 30 minutes, reperfusion 4 hours); assay type: in vivo
# Experimental: Rats are anesthetized by urethane I.P. A catheter is introduced in the right jugular vein for venous sampling, treatment administration, and solute perfusion (NaCl 0.9%, 10 μl/H/g b.w.) during all the experimental period. A catheter is introduced in the left internal carotid artery for arterial blood pressure monitoring and another one in the bladder for urine collection. […] The aortic ostium of the mesenteric artery is controlled. The intravenous administration of the peptide is initiated 5 minutes before clamping the mesenteric artery and after blood sampling (T0). Then, the mesenteric artery is clamped (total occlusion) for 30 minutes creating mesenteric ischemia. Blood sampling is performed at the end of the mesenteric ischemia period (T0.5). The mesenteric artery is then unclamped and reperfusion is follow-up to 4 hours. New blood samplings are performed each hour (T1.5, 2.5, 3.5, 4.5). The animal is sacrificed at the end of the experimental period after a last blood sampling. Urines are collected and diuresis measured each hour. At sacrifice, the ischemic intestine is sampled. One fragment is extruded in order to measure hemoglobin content. The other one is fixed in paraformaldehyde for histology. Several intermediary biological criteria are use in order to characterize the ischemia-reperfusion injury and to evaluate the beneficial effect of the CD31^shed agonist peptide: plasma and urinary free DNA (Picogreen fluorescent intercalant, Invitrogen), from neutrophil origin, traducing neutrophil activation and death, intra-intestinal lumen hemoglobin content (acid formic reaction, Calbiochem kit), traducing epithelial injury, Myeloperoxidase (MPO) content in the intestinal mucosa, reflecting the local accumulation and activation of neutrophils, plasma soluble p-selectin and MMP9 content, reflecting systemic neutrophil activation, as p-selectin is released by a cleavage from the surface of activated neutrophils (and platelets) and MMP9 is contained in the azurofilic granules of the neutrophils and is released early upon neutrophil degranulation. Finally, the extent of mucin film protection was evaluated by histology of the intestinal wall (Alcian blue staining).
# [1] = tested on: apolipoprotein E knockout mice; assay: Model of myocardial ischemia-reperfusion (coronary artery ligation 45 min, reperfusion 24 h); assay type: in vivo
# Experimental: FIG. 2: Effect of P8RI (10 mg/Kg P8RI by subcutaneous injection, 2 minutes prior to reperfusion) on the area at risk and size of myocardial infarction in apolipoprotein E knockout mice (female, 18 week-old) subjected to 45 minutes of ischemia by ligation of the coronary artery, followed by 24 hours of reperfusion. […] P8RI: mice receiving P8RI (n=5); Control: mice receiving a similar volume of vehicle (PBS) without P8RI (n=5). T-Test.
# In order to reproduce the ischemia-reperfusion injury in the setting of coronary atherosclerosis (as it occurs in patients) were used 18 week-old female apolipoprotein E knockout mice (N=12/group) which typically develop coronary atherosclerosis by the age of 16 week (Caligiuri et al., Atherosclerosis. 1999 August;145(2):301-8). Mice were subjected to surgical ligation of the left main coronary artery, according to the method described by Michael et al. (Am J Physiol. 1995 December;269(6 Pt 2):H2147-54). After 43 minutes of ischemia, the mice received either P8RI (10 mg/kg) or the vehicle (PBS) by subcutaneous injection and 2 minutes later the ischemic area was reperfused by reopening of the ligated coronary artery. The next day, the mice were re-anesthetized, the chest reopened and the coronary ligature re-tied; the coronary tree was then rinsed with 2 ml of PBS pushed in the coronary tree through retrograde cannulation of the left carotid artery and the non-ischemic area stained by the injection of 50 μl of evan's blue (3% in PBS) in the same cannula. The heart was then quickly removed from the chest and immersed in a saturated KCl solution (to stop the heart in diastole) and rinsed in PBS. […] Each slice was photographed and the area at risk (AAR, negatively stained by the evan's blue) and the necrotic area (MI, negatively stained in red by the TTC solution) were then measured by computer-assisted image analysis.
# The AAR, expressed as % of the left ventricle (LV) surface and the necrotic area (MI, expressed as percentage of the AAR and of the LV) were calculated on each slice. The data shown in FIG. 2 are expressed as mean±SEM.
# [2] = intravenous perfusion, vs controls
# [3] = mesenteric artery transient occlusion model
# [4] = 10 mg/kg subcutaneous, 2 minutes prior to reperfusion, 24 hours of reperfusion, vs vehicle (PBS)
substance,measurement,setting,value
"kwpalfvr ([dK][dW][dP][dA][dL][dF][dV][dR]) [Peptide P8RI, CD31shed agonist]",thrombin generation,thrombin generation,reduces
same,human platelet aggregation,human platelet,reduces
same,hemoglobin content in the intestine lumen,"Rats; intravenous perfusion, at sacrifice, controls 317.1±93.27",129.4±47.39 μg/mg prot
same,"epithelial villosity abrasion, epithelium desquamation","Rats; intravenous perfusion, histology",protect
same,"mucin / mucus film integrity (histology of the intestinal wall, Alcian blue staining)","Rats; intravenous perfusion, vs control rats, data not shown",histological conservation of mucus; also recorded: preserved most of the mucin film
same,"free hemoglobin within the intestinal lumen (ratio, normalized by total protein content)",Rats; [2],decreased
same,"free myeloperoxidase MPO in the intestinal mucosa (direct ELISA, optical density)",Rats; [2],decreased; also recorded: significantly decrease
same,"plasma MMP9, cumulative concentration (area under the curve of the different time points)",Rats; [2],decreased; also recorded: significantly decrease
same,free DNA in the plasma over time,"Rats; intravenous, initiated 5 minutes before clamping, vs control rats",arrest of the progressive increase; also recorded: remains low and similar to sham-operated rats; also recorded: significantly reduces the progressive increase
same,urinary free DNA,"Rats; intravenous, initiated 5 minutes before clamping, vs controls",reduced; also recorded: significantly reduces the progressive increase
same,LPS secretion in blood,Rats; [3],decrease
same,bacterial translocation,Rats; [3],prevented
same,intestinal necrosis,Rats; [3],prevented
same,size of myocardial infarction (MI) as percentage of the area at risk (AAR),[1]; [4],significantly effective in reducing
same,size of myocardial infarction (MI) as percentage of the left ventricle (LV),[1]; [4],significantly effective in reducing
same,size of the necrotic areas,"[1]; administration during the ischemia-reperfusion period, vs non-treated control mouse",strongly decrease
